Test: Human HepG2 cell viability assay in 384 well format
Type: toxicity, cell-based
Set-up: dose 125 nL, time 70.5 hour; concentration not given beside the values
Conditions: HepG2 cells, read-out: Inhibition

SMILES | cytotoxicity at 70.5 h
O=C(NC1CC(=O)N(C2Cc3ccccc3C2)C1)c1csnn1 (centres undefined) | -1.65%
COCCN(C)C[C@@H]1CN(C(=O)c2ccc(C)c(Cl)c2)C[C@@H]1CO | 1.13%
Cc1ccccc1C(=O)N1CC[C@@H](N2CCC(O)CC2)[C@H](O)C1 | -1.6%
CC(C)c1cc(N2CCCC3(CCN(C)C3)C2)ncn1 (centres undefined) | -5.86%
CCc1cn[nH]c1C1CCCN(C(=O)c2cc(C#N)c(=O)[nH]c2C)C1 (centres undefined) | -22.8%
O=C(Nc1ccc(S(=O)(=O)Nc2c(F)cccc2F)cc1)N1CCCC1 | -6.84%
Cc1cccc2cc(CO)c(N3Cc4cnc(C(C)(C)C)nc4C3)nc12 | 7.83%
C[C@@H]1CN(Cc2cc(C(F)(F)F)ccc2F)CC[C@@]1(O)C1CC1 | -2.04%
CC(=O)N1CCC(N[C@@H]2CC[C@@H]2NS(=O)(=O)c2cccnc2)CC1 | 2.57%
CCn1cc(CN2CCCC3(CCC(=O)N(CCC(C)C)C3)C2)cn1 (centres undefined) | -1.61%
CC(C)[C@H]1COC(=O)N1CC(=O)N1CCCN(C(=O)c2ccoc2)CC1 | -8.34%
CC(C)Cc1cc(CNC(=O)C2CCCN(Cc3ccco3)C2)no1 (centres undefined) | -4.13%
COc1ccccc1C1CCN(C(=O)CN2C(=O)OC(C)(C)C2=O)CC1 | -6.76%
Cc1cccc(-n2ncc3c2CCCC3NCC(C)(C)CO)c1C (centres undefined) | -10.7%
O=C(c1ccccc1-c1nc[nH]n1)N1CCOC(C(F)(F)F)C1 (centres undefined) | -2.49%
CN(C)c1nc2c(c(NCc3nnc4n3CCCCC4)n1)CCNC2 | -6.97%
CC(C)n1ccc(CN2CCN(c3cc(NC4CC4)nc(N)n3)CC2)c1 | -9%
CCCc1cc(=O)[nH]c(-c2ccccc2CN(C)CCC(C)C)n1 | 18.2%
CC(=O)Nc1ccc(C(=O)N(C)C(C)Cc2cc(C)ccn2)cn1 (centres undefined) | 1.81%
CN1CC[C@H]2CN(C(=O)COCc3nc4cc(F)ccc4[nH]3)C[C@H]21 | 20.4%
Cc1nc(O)cc(CCNC(=O)c2ccccc2N2CCCC2)n1 | 27%
CCc1cc(N[C@H]2CCC[C@H]2CO)n2nccc2n1 | 6%
CCCn1cc(C(=O)NCCc2ccc3c(c2)OCO3)c(C)n1 | -4.51%

SMILES | cytotoxicity at 70.5 h
CCc1c(C)sc(NC(=O)CN2CCOCC2)c1C(=O)OC | -6.67%
CSCc1ccc(N2CCC(C(O)Cc3ccccc3)CC2)nc1 (centres undefined) | 26.6%
COCCN(C)CCN1CC2(CCN(C3CCNCC3)CC2)OC1=O | -10.2%
CN(C(=O)c1cccc(NCc2cccs2)c1)C(C1CC1)C1CC1 | -11.2%
CC(=O)N1C[C@H](NS(=O)(=O)c2cccc(Cl)c2)[C@@H](C(C)C)C1 | -9.51%
CCC[C@H]1CN(c2nccc(OC)n2)C[C@@H]1NS(=O)(=O)N(C)C | 0.969%
Cc1[nH]nc(CCC(=O)N2CCc3ncnc(NCCO)c3CC2)c1C | -12.5%
COc1coc(CN2CCCC(CCc3ccccc3F)C2)cc1=O (centres undefined) | 16.9%
CCCNS(=O)(=O)c1ccc2[nH]c(=O)cc(C)c2c1 | -12.9%
Cc1cccnc1CC(C)NC1Cc2ccccc2C1 (centres undefined) | 5.92%
O=C(NC1CC1)c1nc(Cn2c(C(F)F)nc3ccccc32)no1 | -7.88%
Cc1noc(C)c1CCNc1nccc(CCC(F)(F)F)n1 | -8.75%
CNCc1cn(C2CCN(C(=O)NCc3ccco3)CC2)nn1 | -8.5%
CCc1nc2c(NCC3COc4cc(OC)ccc4C3)ncnc2o1 (centres undefined) | -5.75%
CC(C)NC(=O)c1nc(Cn2c(C(F)F)nc3ccccc32)no1 | -15.2%
CN(C)S(=O)(=O)N1CC[C@]2(O)CCN(c3nccs3)C[C@@H]2C1 | 21.2%
CCN1CCN(C(=O)COc2ccc(CN(C)S(C)(=O)=O)cc2)CC1 | -3.87%
CCc1ccc(CNC(=O)CCc2nnc(-c3ccc(C)s3)o2)nc1 | -3.31%
CCCN(Cc1cccc(OCCO)c1)Cc1ccccc1OC | 5.31%
CN(C)CC(C)(C)Cn1cnc(-c2ccccc2)c1-c1ccncc1 | -9.09%
CCCN1CCC(NC(=O)c2csc(C)c2C)CC1 | -7.88%
CC(C1CCN(Cc2cnn(C)c2C2CC2)CC1)N1CCCC1 (centres undefined) | -7.31%
Cc1ccccc1N1CCN(C(=O)CC(C)C)CC1 | 0.0324%

SMILES | cytotoxicity at 70.5 h
CCCN1CCC(NC(=O)c2csc(C)c2-c2ccccc2)CC1 | -9.07%
Cc1ccc2c(c1)c(CNC(=O)C1CC(=O)N(CCN(C)C)C1)nn2C (centres undefined) | -0.487%
N#CC1CCCN(c2ncnc3c2CCN(Cc2ccccc2)CC3)C1 (centres undefined) | 2.53%
CCN(CCO)C[C@@H]1CN(c2nc(C)cc(C)n2)C[C@@H]1CO | -2.32%
Cc1cc(=O)[nH]c(=O)n1-c1cccc(Cl)c1Cl | -12.3%
O=C(CC(F)(F)F)N1CCc2[nH]nc(-c3ccc4c(c3)OCO4)c2C1 | 7.4%
CN1CCC(Oc2ccc(-n3ccnc3-c3ccncc3)cc2)CC1 | -13.2%
O=S(=O)(c1c(N2CCCCC2)ccc2nonc12)N1CCCCC1 | -8.4%
Cc1ccc(C(=O)NCCC(C)C)cc1NS(C)(=O)=O | -10%
CN(C)Cc1nnc(C2CCCN(c3ncccc3F)C2)n1C (centres undefined) | 24.4%
Cc1cc(C)c2nc(CN[C@H]3CCCNC3)cc(O)c2c1 | -2.89%
CC(=O)Nc1ncc(S(=O)(=O)N2CCC(C)CC2)s1 | -8.58%
COc1cc(-c2cnnc(NCCCOC(C)C)n2)cc(OC)c1OC | 6.95%
Cc1ccnc(NC(=O)C(C)Cn2cncn2)c1 (centres undefined) | 13.8%
COCCNc1nc2c(c(NCC3CCOC3)n1)CCNCC2 (centres undefined) | -0.779%
CCC[C@H]1CN(Cc2cc(C#N)n(C)c2C)C[C@@H]1NS(=O)(=O)CC | -6.14%
CCc1cc(C(=O)N2CC[C@@H](c3ccc4c(c3)OCO4)[C@H](O)C2)ccn1 | 16.7%
COc1ccc(C(=O)n2nc(C)c(C)c2C)cc1 | -2.07%
Cc1cccc2c1nc(COCC(=O)O)n2-c1ccsc1 | -4.32%
O=C(C1CCOC1)N1CCN(Cc2ccc3c(c2)CCO3)CC1 (centres undefined) | -9.08%
Cc1nn(C)c(Cl)c1C1CCCN1Cc1nnc(C2CC2)o1 (centres undefined) | -5.62%
COCCc1noc(CN2CCCC2c2c(C)nn(C)c2Cl)n1 (centres undefined) | -0.0583%
Cc1ccc(CN(C)C(=O)c2ccc(NC3CC3)nc2)o1 | -13.2%

SMILES | cytotoxicity at 70.5 h
N#Cc1cccc(C(=O)N2CCN(c3ncccn3)CC2)c1 | 14.3%
Cc1nccc(-c2cccc(NCC(=O)N3CCOCC3)c2)n1 | -4.16%
Cc1nc(C(C)C)sc1C(=O)NCCNc1ncccn1 | -10.9%
Cc1noc(NC(=O)c2cccc(Br)c2)n1 | -0.644%
Cc1noc(NC(=O)CCNC(=O)c2ccc(Br)cc2)n1 | 14.6%
Cc1ccc(C(=O)Nc2nc(C)no2)cc1 | -4.79%
Cc1noc(NC(=O)c2ccc(F)cc2)n1 | -3.99%
CCCc1nc(C)c(C(=O)NCCNc2ncccn2)s1 | -6.59%
O=C(NCCn1cccn1)c1ccn(-c2cccc(F)c2)n1 | -11.4%
COc1ccc(-n2ccc(C(=O)NCCn3ccnc3)n2)cc1 | -8.04%
COc1ccc(C(=O)N(C)Cc2c(C)noc2C)cn1 | -4.2%
Cc1nc(C)c(C(=O)NCCNc2ncccn2)s1 | -5.75%
Cc1cc(C)c(CNC(=O)NCC(O)c2ccccc2F)c(=O)[nH]1 (centres undefined) | -2.12%
Cc1cc(C)c(CNC(=O)N(C)Cc2cccc(F)c2)c(=O)[nH]1 | 0.933%
Cc1noc(C)c1CN(C)C(=O)c1ccc(O)nc1 | -5.72%
COc1ccc(CNC(=O)NC(C)(C(=O)O)c2ccco2)cc1F (centres undefined) | 16.9%
CC(NC(=O)NCc1cccc(F)c1)(C(=O)O)c1ccco1 (centres undefined) | -8.22%
COc1ccc(C(O)CNC(=O)NCc2c(C)cc(C)[nH]c2=O)cc1 (centres undefined) | -5.03%
CCOc1ccnc(N2CCN(C(=O)c3ccc(OC)cc3)CC2)n1 | -12.5%
CCc1nnsc1C(=O)N1CCCC(n2ccnc2C(C)C)C1 (centres undefined) | -5.12%
Cc1ccc(CC(=O)N2CCCC(n3ccnc3C(C)C)C2)cn1 (centres undefined) | -7.44%
Cc1cc(CN2CCCC2c2c(C)nn(C)c2Cl)on1 (centres undefined) | 0.0053%
CC(NC(=O)NCc1ccccc1F)(C(=O)O)c1ccco1 (centres undefined) | -2.87%

SMILES | cytotoxicity at 70.5 h
CC(NC(=O)CSCC#N)c1ccc(F)cc1 (centres undefined) | 10.1%
Cc1nccn1-c1cc(CNC(=O)CC2CCCO2)ccn1 (centres undefined) | 16.3%
O=C(NCc1ccccc1Cn1cncn1)C1CCCC1 | -3.85%
CN(Cc1cccc(O)c1)C(=O)Nc1cccnc1N1CCCC1 | 16.2%
CC(NC(=O)CSCC#N)c1ccc(Cl)cc1 (centres undefined) | -4.42%
Cc1ccoc1C(=O)NC1CCN(CC(=O)N(C)c2ccccc2)CC1 | 18%
Cc1ccc(C(=O)NC2CCN(CC(=O)N(C)c3ccccc3)CC2)o1 | -4.99%
CN(C(=O)CN1CCC(NC(=O)c2cccs2)CC1)c1ccccc1 | -6.85%
Cc1cccc(OCCN2CCC(c3ccnn3CCO)CC2)c1 | -7.3%
OCCn1nccc1C1CCN(CCOc2ccccc2)CC1 | 8.03%
CCc1nc(C(=O)N2CCCCC2)nn1-c1ccccc1Cl | -6.89%
COc1c(CNCc2ccc3c(c2)OCO3)c(C(C)C)nn1C | 18.3%
CC(C)c1nn(C)c(N2CCOCC2)c1CNC(C)c1ccco1 (centres undefined) | -2.73%
CC(C)c1nn(C)c(N(C)C)c1CNCc1ccc(CO)c(F)c1 | 1.57%
Cc1nccn1-c1cc(CNC(=O)CCS(=O)(=O)C2CCCC2)ccn1 | 10.7%
CN(C)c1ccc(C(=O)N2CCCC(n3cccn3)C2)nn1 (centres undefined) | -4.36%
CCc1nc(C(=O)N2CCOCC2)nn1-c1ccccc1Cl | -3.34%
O=C(c1ccc(N2CCCC2)nn1)N1CCCC(n2ccnc2)C1 (centres undefined) | -5.71%
Cc1nc(C)n(CC2CN(CCOc3cccc(C#N)c3)CCO2)n1 (centres undefined) | -6.4%
Cc1cc(C(=O)N2CCOC(c3nc(C(C)C)n[nH]3)C2)c(C)s1 (centres undefined) | -4.17%
CC(C)c1nn(C)c(N(C)C)c1CNC(C)c1ccc2c(c1)OCO2 (centres undefined) | 20%
Cc1ccc(OCCSC2=NCCN2)cc1 | -4.93%
